Laboratory results as given in patent publication US20110319424A1, “NAPHTHYRIDIN-2(1H) -ONE COMPOUNDS USEFUL AS ANTIBACTERIALS” (priority 2008, published 2011).

test system: Mycobacterium tuberculosis H37Rv; experiment: Mycobacterium tuberculosis H37Rv inhibition assay (MIC, resazurin fluorescence); type: cell-based; settings: ATCC 25618 / H37Rv, 144 h, H37Rv strain (ATCC25618), Middlebrook 7H9, six days at 37° C. then resazurin 48 hours

With `O=c1ccc2ncc(F)cc2n1CCN1CCC(NCc2ccc(Br)cn2)CC1` [Example 1, 1-[2-(4-{[(5-Bromo-2-pyridinyl)methyl]amino}-1-piperidinyl)ethyl]-7-fluoro-1,5-naphthyridin-2(1H)-one] as the molecule, how does the MIC read?
Its MIC is no more than 1 µg/mL.

`Cl.Cl.O=c1ccc2ncc(F)cc2n1CCN1CCC(NCc2ccc(Br)cn2)CC1` [Example 1b, 1-[2-(4-{[(5-Bromo-2-pyridinyl)methyl]amino}-1-piperidinyl)ethyl]-7-fluoro-1,5-napthyridin-2(1H)-one dihydrochloride] was tested. Which MIC did it give?
Its MIC is no more than 1 µg/mL.

For `COc1cnc2ccc(=O)n(CCN3CCC(NCc4cnc(Br)s4)CC3)c2c1` [Example 2, 1-[2-(4-{[(2-Bromo-1,3-thiazol-5-yl)methyl]amino}-1-piperidinyl)ethyl]-7-(methyloxy)-1,5-naphthyridin-2(1H)-one], which MIC is on record?
Its MIC is no more than 1 µg/mL.

With `COc1cnc2ccc(=O)n(CCN3CCC(NCc4cnc(Br)s4)CC3)c2c1.Cl` [Example 2b, 1-[2-(4-{[(2-Bromo-1,3-thiazol-5-yl)methyl]amino}-1-piperidinyl)ethyl]-7-(methyloxy)-1,5-naphthyridin-2(1H)-one hydrochloride] as the molecule, how does the MIC read?
Its MIC is no more than 1 µg/mL.

With `O=c1ccc2ncc(F)cc2n1CCN1CCC(NCc2ccc(Cl)c(Cl)c2)CC1` [Example 3, 1-[2-(4-{[(3,4-Dichlorophenyl)methyl]amino}-1-piperidinyl)ethyl]-7-fluoro-1,5-naphthyridin-2(1H)-one] as the molecule, how does the MIC read?
Its MIC is no more than 1 µg/mL.

Which MIC does the source give for `Cl.Cl.O=c1ccc2ncc(F)cc2n1CCN1CCC(NCc2ccc(Cl)c(Cl)c2)CC1` [Example 3b, 1-[2-(4-{[(3,4-Dichlorophenyl)methyl]amino}-1-piperidinyl)ethyl]-7-fluoro-1,5-naphthyridin-2(1H)-one dihydrochloride] here?
The MIC was no more than 1 µg/mL.

`COc1cnc2ccc(=O)n(CCN3CCC(NCc4ccc(C(F)(F)F)nc4)CC3)c2c1` [Example 4, 7-(Methyloxy)-1-{2-[4-({[6-(trifluoromethyl)-3-pyridinyl]methyl}amino)-1-piperidinyl]ethyl}-1,5-naphthyridin-2(1H)-one] was tested. Which MIC did it give?
The MIC was no more than 1 µg/mL.

`COc1cnc2ccc(=O)n(CCN3CCC(NCc4ccc(C(F)(F)F)nc4)CC3)c2c1.Cl` [Example 4b, 7-(Methyloxy)-1-{2-[4-({[6-(trifluoromethyl)-3-pyridinyl]methyl}amino)-1-piperidinyl]ethyl}-1,5-naphthyridin-2(1H)-one hydrochloride] was tested. Which MIC did it give?
Its MIC is no more than 1 µg/mL.

For `COc1cnc2ccc(=O)n(CCN3CCC(NCc4nc(C)c(C)s4)CC3)c2c1` [Example 6, 1-[2-(4-{[(4,5-Dimethyl-1,3-thiazol-2-yl)methyl]amino}-1-piperidinyl)ethyl]-7-(methyloxy)-1,5-naphthyridin-2(1H)-one], which MIC is on record?
Its MIC is no more than 2.4 µg/mL.

`O=c1ccc2ncccc2n1CCN1CCC(NCc2ccc(Cl)c(Cl)c2)CC1` [Example 8, 1-[2-(4-{[(3,4-Dichlorophenyl)methyl]amino}-1-piperidinyl)ethyl]-1,5-naphthyridin-2(1H)-one] was tested. Which MIC did it give?
Its MIC is no more than 1 µg/mL.

For `Cl.Cl.O=c1ccc2ncccc2n1CCN1CCC(NCc2ccc(Cl)c(Cl)c2)CC1` [Example 8b, 1-[2-(4-{[(3,4-Dichlorophenyl)methyl]amino}-1-piperidinyl)ethyl]-1,5-naphthyridin-2(1H)-one dihydrochloride], which MIC is on record?
Its MIC is no more than 1 µg/mL.

Which MIC does the source give for `O=c1ccc2ncccc2n1CCN1CCC(NCc2ccc(Br)nc2)CC1` [Example 9, 1-[2-(4-{[(6-Bromo-3-pyridinyl)methyl]amino}-1-piperidinyl)ethyl]-1,5-naphthyridin-2(1H)-one] here?
Its MIC is no more than 2.4 µg/mL.

`COc1cnc2ccc(=O)n(CCN3CCC(NCc4ccc(Cl)c(Cl)c4)CC3)c2c1` [Example 11, 1-[2-(4-{[(3,4-Dichlorophenyl)methyl]amino}-1-piperidinyl)ethyl]-7-(methyloxy)-1,5-naphthyridin-2(1H)-one] was tested. Which MIC did it give?
Its MIC is no more than 1 µg/mL.

`COc1cnc2ccc(=O)n(CCN3CCC(NCc4ccc(Cl)c(Cl)c4)CC3)c2c1.Cl` [Example 11b, 1-[2-(4-{[(3,4-Dichlorophenyl)methyl]amino}-1-piperidinyl)ethyl]-7-(methyloxy)-1,5-naphthyridin-2(1H)-one hydrochloride] was tested. Which MIC did it give?
The MIC was no more than 1 µg/mL.

How did the MIC turn out when `COc1cnc2ccc(=O)n(CCN3CCC(NCc4ccc(Cl)c(Cl)c4)CC3)c2c1.Cl.Cl` [Example 11c, 1-[2-(4-{[(3,4-Dichlorophenyl)methyl]amino}-1-piperidinyl)ethyl]-7-(methyloxy)-1,5-naphthyridin-2(1H)-one dihvdrochloride] was run?
Its MIC is no more than 1 µg/mL.

With `COc1cnc2ccc(=O)n(CCN3CCC(NCc4ccc(Cl)cc4)CC3)c2c1` [Example 12, 1-[2-(4-{[(4-Chlorophenyl)methyl]amino}-1-piperidinyl)ethyl]-7-(methyloxy)-1,5-naphthyridin-2(1H)-one] as the molecule, how does the MIC read?
The MIC was no more than 1 µg/mL.

With `COc1cnc2ccc(=O)n(CCN3CCC(NCc4ccc(Cl)cc4)CC3)c2c1.Cl.Cl` [Example 12b, 1-[2-(4-{[(4-Chlorophenyl)methyl]amino}-1-piperidinyl)ethyl]-7-(methyloxy)-1,5-naphthyridin-2(1H)-one dihydrochloride] as the molecule, how does the MIC read?
Its MIC is no more than 1 µg/mL.

How did the MIC turn out when `COc1cnc2ccc(=O)n(CCN3CCC(NCc4ccc(Cl)cc4)CC3)c2c1.Cl` [Example 12c, 1-[2-(4-{[(4-Chlorophenyl)methyl]amino}-1-piperidinyl)ethyl]-7-(methyloxy)-1,5-naphthyridin-2(1H)-one hydrochloride] was run?
Its MIC is no more than 1 µg/mL.

For `O=c1ccc2ncc(F)cc2n1CCN1CCC(NCc2ccc(Br)o2)CC1` [Example 34, 1-[2-(4-{[(5-bromo-2-furanyl)methyl]amino}-1-piperidinyl)ethyl]-7-fluoro-1,5-naphthyridin-2(1H)-one], which MIC is on record?
The MIC was no more than 2.4 µg/mL.

Which MIC does the source give for `O=c1ccc2ncc(F)cc2n1CCN1CCC(NCc2cc(Cl)ccc2Cl)CC1` [Example 38, 1-[2-(4-{[(2,5-dichlorophenyl)methyl]amino}-1-piperidinyl)ethyl]-7-fluoro-1,5-naphthyridin-2(1H)-one] here?
The MIC was no more than 2.4 µg/mL.

For `O=c1ccc2ncccc2n1CCN1CCC(NCc2ccc(Br)s2)CC1` [Example 48, 1-[2-(4-{[(5-bromo-2-thienyl)methyl]amino}-1-piperidinyl)ethyl]-1,5-naphthyridin-2(1H)-one], which MIC is on record?
The MIC was no more than 2.4 µg/mL.

Which MIC does the source give for `O=c1ccc2ncccc2n1CCN1CCC(NCc2cnc(Br)s2)CC1` [Example 49, 1-[2-(4-{[(2-bromo-1,3-thiazol-5-yl)methyl]amino}-1-piperidinyl)ethyl]-1,5-naphthyridin-2(1H)-one] here?
The MIC was no more than 2.4 µg/mL.

`COc1ccc(CNC2CCN(CCn3c(=O)ccc4ncccc43)CC2)cc1Cl` [Example 51, 1-{2-[4-({[3-chloro-4-(methyloxy)phenyl]methyl}amino)-1-piperidinyl]ethyl}-1,5-naphthyridin-2(1H)-one] was tested. Which MIC did it give?
The MIC was no more than 2.4 µg/mL.

Which MIC does the source give for `COc1cnc2ccc(=O)n(CCN3CCC(NCc4nc(Br)cs4)CC3)c2c1` [Example 64, 1-[2-(4-{[(4-bromo-1,3-thiazol-2-yl)methyl]amino}-1-piperidinyl)ethyl]-7-(methyloxy)-1,5-naphthyridin-2(1H)-one] here?
Its MIC is no more than 2.4 µg/mL.

With `COc1cnc2ccc(=O)n(CCN3CCC(NCc4ccc(F)c(C)n4)CC3)c2c1` [Example 68, 1-[2-(4-{[(5-fluoro-6-methyl-2-pyridinyl)methyl]amino}-1-piperidinyl)ethyl]-7-(methyloxy)-1,5-naphthyridin-2(1H)-one] as the molecule, how does the MIC read?
Its MIC is no more than 2.4 µg/mL.

With `O=c1ccc2ncccc2n1CCN1CCC(NCc2cc(Br)cs2)CC1` [Example 81, 1-[2-(4-{[(4-bromo-2-thienyl)methyl]amino}-1-piperidinyl)ethyl]-1,5-naphthyridin-2(1H)-one] as the molecule, how does the MIC read?
Its MIC is no more than 2.4 µg/mL.

How did the MIC turn out when `O=c1ccc2ncc(F)cc2n1CCN1CCC(NCc2cccc(Cl)c2)CC1` [Example 103, 1-[2-(4-{[(3-chlorophenyl)methyl]amino}-1-piperidinyl)ethyl]-7-fluoro-1,5-naphthyridin-2(1H)-one] was run?
The MIC was no more than 2.4 µg/mL.

Which MIC does the source give for `COc1cnc2ccc(=O)n(CCN3CCC(NCc4cncc(Cl)n4)CC3)c2c1` [Example 111, 1-[2-(4-{[(6-chloro-2-pyrazinyl)methyl]amino}-1-piperidinyl)ethyl]-7-(methyloxy)-1,5-naphthyridin-2(1H)-one] here?
Its MIC is no more than 2.4 µg/mL.

`COc1cnc2ccc(=O)n(CCN3CCC(NCc4ccnc(C(F)(F)F)n4)CC3)c2c1` [Example 113, 7-(methyloxy)-1-{2-[4-({[2-(trifluoromethyl)-4-pyrimidinyl]methyl}amino)-1-piperidinyl]ethyl}-1,5-naphthyridin-2(1H)-one] was tested. Which MIC did it give?
Its MIC is no more than 2.4 µg/mL.

How did the MIC turn out when `COc1cnc2ccc(=O)n(CCN3CCC(NCc4cc(C)cc(C)n4)CC3)c2c1` [Example 114, 1-[2-(4-{[(4,6-dimethyl-2-pyridinyl)methyl]amino}-1-piperidinyl)ethyl]-7-(methyloxy)-1,5-naphthyridin-2(1H)-one] was run?
Its MIC is no more than 2.4 µg/mL.

For `COc1cnc2ccc(=O)n(CCN3CCC(NCc4ccc(Cl)cn4)CC3)c2c1` [Example 116], which MIC is on record?
The MIC was no more than 2.4 µg/mL.

`CC(C)(C)c1ccc(CNC2CCN(CCn3c(=O)ccc4ncc(F)cc43)CC2)cc1` [Example 121, 1-{2-[4-({[4-(1,1-dimethylethyl)phenyl]methyl}amino)-1-piperidinyl]ethyl}-7-fluoro-1,5-naphthyridin-2(1H)-one] was tested. Which MIC did it give?
Its MIC is no more than 2.4 µg/mL.

Which MIC does the source give for `Cc1cc(CNC2CCN(CCn3c(=O)ccc4ncc(F)cc43)CC2)cnc1C` [Example 125, 1-[2-(4-{[(5,6-dimethyl-3-pyridinyl)methyl]amino}-1-piperidinyl)ethyl]-7-fluoro-1,5-naphthyridin-2(1H)-one] here?
Its MIC is no more than 2.4 µg/mL.

Which MIC does the source give for `Cc1ncc(CN[C@H]2CCN(CCn3c(=O)ccc4ncc(F)cc43)C[C@H]2O)cc1Br` [Example 130, 1-[2-((3R,4S)-4-{[(5-bromo-6-methyl-3-pyridinyl)methyl]amino}-3-hydroxy-1-piperidinyl)ethyl]-7-fluoro-1,5-naphthyridin-2(1H)-one] here?
Its MIC is no more than 2.4 µg/mL.

How did the MIC turn out when `CC1(NCc2ccc(C(F)(F)F)nc2)CCN(CCn2c(=O)ccc3ncc(F)cc32)CC1` [Example 131, 7-fluoro-1-{2-[4-methyl-4-({[6-(trifluoromethyl)-3-pyridinyl]methyl}amino)-1-piperidinyl]ethyl}-1,5-naphthyridin-2(1H)-one] was run?
Its MIC is no more than 2.4 µg/mL.

Which MIC does the source give for `COc1cnc2ccc(=O)n(CCN3CCC(C)(NCc4ccc(Cl)c(Cl)c4)CC3)c2c1` [Example 132] here?
Its MIC is no more than 2.4 µg/mL.
